In PubChem BioAssay (NCI):
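Five concentrations, 48 hours, 96-well plates. TGI denotes the concentration required for complete inhibition of growth.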

Experiments:
Assay in all cases: growth of human tumour cells (NCI), 48 h
CCRF-CEM leukemia = tested on: CCRF-CEM leukemia
SF-295 CNS = tested on: SF-295 CNS
HOP-92 NSCLC = tested on: HOP-92 NSCLC
MDA-N = tested on: MDA-N
UACC-62 melanoma = tested on: UACC-62 melanoma
A549 NSCLC = tested on: A549 NSCLC
PC-3 prostate = tested on: PC-3 prostate
MDA-MB-435 = tested on: MDA-MB-435
COLO 205 colon = tested on: COLO 205 colon
A498 renal = tested on: A498 renal
NCI-H460 lung = tested on: NCI-H460 lung
IGROV1 ovarian = tested on: IGROV1 ovarian
SF-539 CNS = tested on: SF-539 CNS
HT29 colon = tested on: HT29 colon
MOLT-4 leukemia = tested on: MOLT-4 leukemia
SK-MEL-5 melanoma = tested on: SK-MEL-5 melanoma
DU-145 prostate = tested on: DU-145 prostate
LOX IMVI melanoma = tested on: LOX IMVI melanoma
MDA-MB-231 breast = tested on: MDA-MB-231 breast
RXF 393 renal = tested on: RXF 393 renal
BT-549 breast = tested on: BT-549 breast
ACHN renal = tested on: ACHN renal
SF-268 CNS = tested on: SF-268 CNS
SK-MEL-28 melanoma = tested on: SK-MEL-28 melanoma
SNB-19 CNS = tested on: SNB-19 CNS
MALME-3M melanoma = tested on: MALME-3M melanoma
OVCAR-3 ovarian = tested on: OVCAR-3 ovarian
SK-OV-3 ovarian = tested on: SK-OV-3 ovarian
HL-60(TB) leukemia = tested on: HL-60(TB) leukemia
SR leukemia = tested on: SR leukemia
MCF7 breast = tested on: MCF7 breast
SK-MEL-2 melanoma = tested on: SK-MEL-2 melanoma
OVCAR-5 ovarian = tested on: OVCAR-5 ovarian
TK-10 renal = tested on: TK-10 renal
NCI-H226 lung = tested on: NCI-H226 lung
HCC-2998 colon = tested on: HCC-2998 colon
EKVX NSCLC = tested on: EKVX NSCLC
OVCAR-4 ovarian = tested on: OVCAR-4 ovarian
OVCAR-8 ovarian = tested on: OVCAR-8 ovarian
786-0 renal = tested on: 786-0 renal
SW-620 colon = tested on: SW-620 colon
NCI-H23 lung = tested on: NCI-H23 lung
SN12C renal = tested on: SN12C renal
KM12 colon = tested on: KM12 colon
CAKI-1 renal = tested on: CAKI-1 renal
T-47D breast = tested on: T-47D breast
UACC-257 melanoma = tested on: UACC-257 melanoma
K-562 leukemia = tested on: K-562 leukemia
NCI-H522 lung = tested on: NCI-H522 lung
HOP-62 NSCLC = tested on: HOP-62 NSCLC
HS 578T breast = tested on: HS 578T breast
UO-31 renal = tested on: UO-31 renal
NCI/ADR-RES ovarian = tested on: NCI/ADR-RES ovarian
RPMI-8226 leukemia = tested on: RPMI-8226 leukemia
U251 CNS = tested on: U251 CNS
SNB-75 CNS = tested on: SNB-75 CNS
HCT-15 colon = tested on: HCT-15 colon
HCT-116 colon = tested on: HCT-116 colon
M14 melanoma = tested on: M14 melanoma

SMILES: CC(/C=N/N(C)C1=NCCCN1)=N/N(C)C1=NCCCN1
- TGI (CCRF-CEM leukemia): > 100 µM
- TGI (SF-295 CNS): > 100 µM
- TGI (HOP-92 NSCLC): > 100 µM
- TGI (MDA-N): > 100 µM
- TGI (UACC-62 melanoma): > 100 µM
- TGI (A549 NSCLC): > 100 µM
- TGI (PC-3 prostate): > 100 µM
- TGI (MDA-MB-435): > 100 µM
- TGI (COLO 205 colon): > 100 µM
- TGI (A498 renal): > 100 µM
- TGI (NCI-H460 lung): > 100 µM
- TGI (IGROV1 ovarian): > 100 µM
- TGI (SF-539 CNS): > 100 µM
- TGI (HT29 colon): > 100 µM
- TGI (MOLT-4 leukemia): > 100 µM
- TGI (SK-MEL-5 melanoma): > 100 µM
- TGI (DU-145 prostate): > 100 µM
- TGI (LOX IMVI melanoma): > 100 µM
- TGI (MDA-MB-231 breast): > 100 µM
- TGI (RXF 393 renal): > 100 µM
- TGI (BT-549 breast): > 100 µM
- TGI (ACHN renal): > 100 µM
- TGI (SF-268 CNS): > 100 µM
- TGI (SK-MEL-28 melanoma): > 100 µM
- TGI (SNB-19 CNS): > 100 µM
- TGI (MALME-3M melanoma): > 100 µM
- TGI (OVCAR-3 ovarian): > 100 µM
- TGI (SK-OV-3 ovarian): > 100 µM
- TGI (HL-60(TB) leukemia): > 100 µM
- TGI (SR leukemia): > 100 µM
- TGI (MCF7 breast): > 100 µM
- TGI (SK-MEL-2 melanoma): > 100 µM
- TGI (OVCAR-5 ovarian): > 100 µM
- TGI (TK-10 renal): > 100 µM
- TGI (NCI-H226 lung): > 100 µM
- TGI (HCC-2998 colon): > 100 µM
- TGI (EKVX NSCLC): > 100 µM
- TGI (OVCAR-4 ovarian): > 100 µM
- TGI (OVCAR-8 ovarian): > 100 µM
- TGI (786-0 renal): > 100 µM
- TGI (SW-620 colon): > 100 µM
- TGI (NCI-H23 lung): > 100 µM
- TGI (SN12C renal): > 100 µM
- TGI (KM12 colon): > 100 µM
- TGI (CAKI-1 renal): > 100 µM
- TGI (T-47D breast): > 100 µM
- TGI (UACC-257 melanoma): > 100 µM
- TGI (K-562 leukemia): > 100 µM
- TGI (NCI-H522 lung): > 100 µM
- TGI (HOP-62 NSCLC): > 100 µM
- TGI (HS 578T breast): > 100 µM
- TGI (UO-31 renal): > 100 µM
- TGI (NCI/ADR-RES ovarian): > 100 µM
- TGI (RPMI-8226 leukemia): > 100 µM
- TGI (U251 CNS): > 100 µM
- TGI (SNB-75 CNS): > 100 µM
- TGI (HCT-15 colon): > 100 µM
- TGI (HCT-116 colon): > 100 µM

SMILES: CCC1CC(C)C(O)/C=C/C=C/CC(C)OC(=O)CC(O)C(OC)C1OC1OC(C)CC(O)(C(C)=O)C1O (stereo not given)
- TGI (CCRF-CEM leukemia): > 100 µM
- TGI (SF-295 CNS): > 100 µM
- TGI (HOP-92 NSCLC): > 100 µM
- TGI (MDA-N): > 100 µM
- TGI (UACC-62 melanoma): > 100 µM
- TGI (A549 NSCLC): > 100 µM
- TGI (PC-3 prostate): > 100 µM
- TGI (MDA-MB-435): > 100 µM
- TGI (COLO 205 colon): > 100 µM
- TGI (A498 renal): > 100 µM
- TGI (IGROV1 ovarian): > 100 µM
- TGI (SF-539 CNS): > 100 µM
- TGI (HT29 colon): > 100 µM
- TGI (MOLT-4 leukemia): > 100 µM
- TGI (SK-MEL-5 melanoma): > 100 µM
- TGI (DU-145 prostate): > 100 µM
- TGI (LOX IMVI melanoma): > 100 µM
- TGI (MDA-MB-231 breast): 67.9 µM
- TGI (RXF 393 renal): > 100 µM
- TGI (BT-549 breast): > 100 µM
- TGI (ACHN renal): > 100 µM
- TGI (SF-268 CNS): > 100 µM
- TGI (SK-MEL-28 melanoma): > 100 µM
- TGI (SNB-19 CNS): 79.5 µM
- TGI (MALME-3M melanoma): > 100 µM
- TGI (OVCAR-3 ovarian): > 100 µM
- TGI (SK-OV-3 ovarian): > 100 µM
- TGI (HL-60(TB) leukemia): 42.4 µM
- TGI (SR leukemia): 59.8 µM
- TGI (MCF7 breast): > 100 µM
- TGI (SK-MEL-2 melanoma): > 100 µM
- TGI (OVCAR-5 ovarian): > 100 µM
- TGI (TK-10 renal): > 100 µM
- TGI (NCI-H226 lung): > 100 µM
- TGI (HCC-2998 colon): 66.5 µM
- TGI (EKVX NSCLC): > 100 µM
- TGI (OVCAR-4 ovarian): 42.8 µM
- TGI (OVCAR-8 ovarian): > 100 µM
- TGI (786-0 renal): > 100 µM
- TGI (SW-620 colon): > 100 µM
- TGI (NCI-H23 lung): > 100 µM
- TGI (SN12C renal): > 100 µM
- TGI (KM12 colon): > 100 µM
- TGI (CAKI-1 renal): > 100 µM
- TGI (T-47D breast): > 100 µM
- TGI (UACC-257 melanoma): > 100 µM
- TGI (NCI-H522 lung): 51.4 µM
- TGI (HOP-62 NSCLC): > 100 µM
- TGI (M14 melanoma): > 100 µM
- TGI (HS 578T breast): > 100 µM
- TGI (UO-31 renal): > 100 µM
- TGI (NCI/ADR-RES ovarian): > 100 µM
- TGI (RPMI-8226 leukemia): > 100 µM
- TGI (U251 CNS): > 100 µM
- TGI (SNB-75 CNS): > 100 µM
- TGI (HCT-15 colon): > 100 µM
- TGI (HCT-116 colon): > 100 µM
